The test deals with c-myc in 22RV-1 cells. The test can be described thus: Human c-myc ELISA assay. In kind it is cell-based. As to conditions: Homo sapiens; for Emax: 22Rv1, 18 h, read-out: Degradation of BRD4: Maximum inhibition (%) c-Myc ELISA in 22RV1 cells; for DC50: 22Rv1, read-out: Degradation of BRD4: DC50 (uM) c-Myc ELISA in 22RV1 cells. As for the experimental part: 22RV-1 cells are seeded at 30,000 cells/well at a volume of 75 μL/well in RPMI+10% FBS media in 96-well plates and grown overnight at 37 C. Cells are dosed with compounds at 4× concentration diluted in 0.4% DMSO; compounds are serially diluted 1:3 for 8-point dose curve. 25 ul of compounds is added to cells for a final concentration starting at 300 nM-0.3 nM or 1 uM-1 nM in 0.1% DMSO and incubated for 18 hrs. Media is aspirated, cells washed 1× with PBS and aspirated. Cells are lysed in 50 ul RIPA buffer (50 mM Tris pH8, 150 mM NaCl, 1% Tx-100, 0.1% SDS, 0.5% sodium deoxycholate) supplemented with protease and phosphatase inhibitors. Plates are incubated on ice for 15 minutes then centrifuged at 4 C for 10 min at 4000 rpm. Add 50 ul of cleared lysate from 96-well assay plate into 96-well c-myc ELISA plate (Novex, Life Technologies Catalog #KH02041). Reconstitute c-myc standard with standard diluent buffer; standard curve range is 333 pg/ml-0 pg/ml, diluted 1:2 for 8-point dose curve. The rest of the assay was performed following the protocol from the c-myc ELISA kit. Data is analyzed and plotted using GraphPad Prism software. Compounds described in this application were assayed and c-myc suppression potency is listed in the following Table (A: DC50<10 nM; B: DC50 10-100 nM; C: DC50: 100-1000 nM; D: DC50>1000 nM)
A general note: In an ELISA, binding on a coated surface is turned into a signal by an enzyme label.

The DC50 is the midpoint of the concentration-degradation curve.

On to `Cc1ncsc1-c1ccc([C@H](C)NC(=O)[C@@H]2C[C@@H](O)CN2C(=O)[C@@H](NC(=O)CCc2cc(F)cc(OCCNC(=O)C[C@@H]3N=C(c4ccc(Cl)cc4)c4c(sc(C)c4C)-n4c(C)nnc43)c2)C(C)(C)C)cc1` [Example 150, (2S,4R)-1-[(2S)-2-{3-[3-(2-{2-[(9S)-7-(4-chlorophenyl)-4,5,13-trimethyl-3-thia-1,8,11,12-tetraazatricyclo[8.3.0.0^2,^6]trideca-2(6),4,7,10,12-pentaen-9-yl]acetamido}ethoxy)-5-fluorophenyl]propanamido}-3,3-dimethylbutanoyl]-4-hydroxy-N-[(1S)-1-[4-(4-methyl-1,3-thiazol-5-yl)phenyl]ethyl]pyrrolidine-2-carboxamide], for which the Emax was found to be 93.9% and the 50% degradation concentration (DC50) was less than 0.01 µM.

For the compound `Cc1ncsc1-c1ccc([C@H](C)NC(=O)[C@@H]2C[C@@H](O)CN2C(=O)[C@@H](NC(=O)CCOCCN2CCN(C(=O)C[C@@H]3N=C(c4ccc(Cl)cc4)c4c(sc(C)c4C)-n4c(C)nnc43)CC2)C(C)(C)C)cc1` [Example 318], the Emax worked out at 79% and the 50% degradation concentration (DC50) lay within 0.1 to 1 µM.

For the compound `Cc1ncsc1-c1ccc(CNC(=O)[C@@H]2C[C@@H](O)CN2C(=O)[C@H](c2cc(OCCN3CCC(NC(=O)C[C@@H]4N=C(c5ccc(Cl)cc5)c5c(sc(C)c5C)-n5c(C)nnc54)CC3)no2)C(C)C)cc1` [Example 315], the Emax is 11.4% and the DC50 was greater than 1 µM.

On to `Cc1ncsc1-c1ccc(CNC(=O)[C@@H]2C[C@@H](O)CN2C(=O)[C@@H](NC(=O)COCCCOCCCOc2ccc(NC(=O)C[C@@H]3N=C(c4ccc(Cl)cc4)c4c(sc(C)c4C)-n4c(C)nnc43)cc2)C(C)(C)C)cc1` [Example 16], for which the Emax was 98.6% and the DC50 lay within 0.01 to 0.1 µM.

In the case of `Cc1ncsc1-c1ccc(CNC(=O)[C@@H]2C[C@@H](O)CN2C(=O)[C@@H](c2cc(OCCC(F)(F)CCNC(=O)C[C@@H]3N=C(c4ccc(Cl)cc4)c4c(sc(C)c4C)-n4c(C)nnc43)no2)C(C)C)cc1` [Example 297, (2S,4R)-1-[(2R)-2-{3-[(5-{2-[(9S)-7-(4-chlorophenyl)-4,5,13-trimethyl-3-thia-1,8,11,12-tetraazatricyclo[8.3.0.0^2,^6]trideca-2(6),4,7,10,12-pentaen-9-yl]acetamido}-3,3-difluoropentyl)oxy]-1,2-oxazol-5-yl}-3-methylbutanoyl]-4-hydroxy-N-{[4-(4-methyl-1,3-thiazol-5-yl)phenyl]methyl}pyrrolidine-2-carboxamide], the Emax was determined as 97% and the DC50 is less than 0.01 µM.

Take `Cc1ncoc1-c1ccc(CNC(=O)[C@@H]2C[C@@H](O)CN2C(=O)[C@H](C(C)C)n2cc(-c3ccnc(O[C@H]4C[C@@H](NC(=O)C[C@@H]5N=C(c6ccc(Cl)cc6)c6c(sc(C)c6C)-n6c(C)nnc65)C4)c3)cn2)cc1` [Example 295]: the Emax is 93.8% and the half-maximal degradation concentration (DC50) fell in the range of 0.1 to 1 µM.

Regarding `Cc1ncsc1-c1ccc(CNC(=O)[C@@H]2C[C@@H](O)CN2C(=O)[C@@H](NC(=O)COCCCOCCCOc2ccc(NC(=O)C[C@@H]3N=C(c4ccc(Cl)cc4)c4c(sc(C)c4C)-n4c(C)nnc43)cc2F)C(C)(C)C)cc1` [Example 19], the Emax amounted to 92% and the DC50 is 0.01 to 0.1 µM.

As for `Cc1ncsc1-c1ccc(CNC(=O)[C@@H]2C[C@@H](O)CN2C(=O)C(c2cc(OCCCCCNC(=O)C[C@@H]3N=C(c4ccc(Cl)cc4)c4c(sc(C)c4C)-n4c(C)nnc43)no2)C(C)C)cc1` (stereo partly drawn) [Example 90], the Emax turned out to be 100% and the 50% degradation concentration (DC50) is less than 0.01 µM.

For the compound `Cc1ncsc1-c1ccc([C@H](C)NC(=O)[C@@H]2C[C@@H](O)CN2C(=O)[C@@H](C(C)C)n2cc(-c3cc(F)cc(O[C@H]4C[C@H](NC(=O)C[C@@H]5N=C(c6ccc(Cl)cc6)c6c(sc(C)c6C)-n6c(C)nnc65)C4)c3)cn2)cc1` [Example 253], the Emax came to 33.4% and the DC50 is greater than 1 µM.

Turning to `Cc1ncsc1-c1ccc(CNC(=O)[C@@H]2C[C@@H](O)CN2C(=O)[C@@H](NC(=O)COCc2ccc(Oc3cccc(NC(=O)C[C@@H]4N=C(c5ccc(Cl)cc5)c5c(sc(C)c5C)-n5c(C)nnc54)c3)cc2)C(C)(C)C)cc1` [Example 95], the Emax turned out to be 99.5% and the DC50 was less than 0.01 µM.

With `Cc1ncsc1-c1ccc(CNC(=O)[C@@H]2C[C@@H](O)CN2C(=O)[C@@H](NC(=O)CCCCCCCCNC(=O)C[C@@H]2N=C(c3ccc(Cl)cc3)c3c(sc(C)c3C)-n3c(C)nnc32)C(C)(C)C)cc1` [Example 68], the Emax came out at 95.4% and the DC50 is 0.01 to 0.1 µM.

Regarding `Cc1ncsc1-c1ccc([C@H](C)NC(=O)[C@@H]2C[C@@H](O)CN2C(=O)C(C(C)C)n2cc(-c3cc(F)cc(O[C@@H](C)CNC(=O)C[C@@H]4N=C(c5ccc(Cl)cc5)c5c(sc(C)c5C)-n5c(C)nnc54)c3)cn2)cc1` (stereo partly drawn) [Example 208], the Emax came out at 92% and the DC50 is less than 0.01 µM.

Turning to `Cc1ncsc1-c1ccc([C@H](C)NC(=O)[C@@H]2C[C@@H](O)CN2C(=O)[C@@H](NC(=O)/C=C/c2cc(O[C@@H](C)CNC(=O)C[C@@H]3N=C(c4ccc(Cl)cc4)c4c(sc(C)c4C)-n4c(C)nnc43)ccc2F)C(C)(C)C)cc1` [Example 196], the Emax amounted to 94.5% and the DC50 is less than 0.01 µM.

Consider `Cc1ncsc1-c1ccc([C@H](C)NC(=O)[C@@H]2C[C@@H](O)CN2C(=O)[C@@H](NC(=O)COCCCOCCN(C)C(=O)C[C@@H]2N=C(c3ccc(Cl)cc3)c3c(sc(C)c3C)-n3c(C)nnc32)C(C)(C)C)cc1` [Example 148], for which the Emax came to 100% and the half-maximal degradation concentration (DC50) was less than 0.01 µM.

For the compound `Cc1ncsc1-c1ccc(CNC(=O)[C@@H]2C[C@@H](O)CN2C(=O)[C@@H](NC(=O)COCCCOCCNC(=O)C[C@@H]2N=C(c3ccc(Cl)cc3)c3c(sc(C)c3C)-n3c(C)nnc32)C(C)(C)C)cc1` [Example 49, (2S,4R)-1-[(2S)-2-{2-[3-(2-{2-[(9S)-7-(4-chlorophenyl)-4,5,13-trimethyl-3-thia-1,8,11,12-tetraazatricyclo[8.3.0.0^2,^6]trdeca-2(6),4,7,10,12-pentaen-9-yl]acetamido}ethoxy)propoxy]acetamido}-3,3-dimethylbutanoyl]-4-hydroxy-N-{[4-(4-methyl-1,3-thiazol-5-yl)phenyl]methyl}pyrrolidine-2-carboxamide], the Emax was determined as 99% and the DC50 was less than 0.01 µM.

Consider `Cc1ncsc1-c1ccc([C@H](C)NC(=O)[C@@H]2C[C@@H](O)CN2C(=O)[C@@H](NC(=O)c2cc3cc(O[C@H]4C[C@H](NC(=O)C[C@@H]5N=C(c6ccc(Cl)cc6)c6c(sc(C)c6C)-n6c(C)nnc65)C4)ccc3o2)C(C)(C)C)cc1` [Example 207, (2S,4R)-1-[(2S)-3,3-dimethyl-2-({5-[(1,3trans)-3-{2-[(9S)-7-(4-chlorophenyl)-4,5,13-trimethyl-3-thia-1,8,11,12-tetraazatricyclo[8.3.0.0^2,^6]trideca-2(6),4,7,10,12-pentaen-9-yl]acetamido}cyclobutoxy]-1-benzofuran-2-yl}formamido)butanoyl]-4-hydroxy-N-[(1S)-1-[4-(4-methyl-1,3-thiazol-5-yl)phenyl]ethyl]pyrrolidine-2-carboxamide], for which the Emax worked out at 89.5% and the 50% degradation concentration (DC50) is less than 0.01 µM.

Consider `Cc1ncsc1-c1ccc(CNC(=O)[C@@H]2C[C@@H](O)CN2C(=O)[C@@H](NC(=O)Cc2ccc(N3CC[C@H](NC(=O)C[C@@H]4N=C(c5ccc(Cl)cc5)c5c(sc(C)c5C)-n5c(C)nnc54)C3)cn2)C(C)(C)C)cc1` [Example 93], for which the Emax was 74.2% and the half-maximal degradation concentration (DC50) fell in the range of 0.1 to 1 µM.

As for `Cc1ncsc1-c1ccc(CNC(=O)[C@@H]2C[C@@H](O)CN2C(=O)[C@H](c2cc(OCCN3CC[C@@H](NC(=O)C[C@@H]4N=C(c5ccc(Cl)cc5)c5c(sc(C)c5C)-n5c(C)nnc54)C3)no2)C(C)C)cc1` (single isomer, unassigned) [Example 311], the Emax came out at 43.6% and the DC50 was greater than 1 µM.

`Cc1ncsc1-c1ccc([C@H](C)NC(=O)[C@@H]2C[C@@H](O)CN2C(=O)[C@@H](NC(=O)CCc2cc(F)cc(O[C@H](C)CNC(=O)C[C@@H]3N=C(c4ccc(Cl)cc4)c4c(sc(C)c4C)-n4c(C)nnc43)c2)C(C)(C)C)cc1` [Example 203]: the Emax is 92% and the DC50 was less than 0.01 µM.

In the case of `Cc1ncsc1-c1ccc(CNC(=O)[C@@H]2C[C@@H](O)CN2C(=O)[C@@H](NC(=O)COCCOCCOCCNC(=O)CC2N=C(c3ccc(Cl)cc3)c3c(sc(C)c3C)-n3c(C)nnc32)C(C)(C)C)cc1` (stereo partly drawn) [Example 98], the Emax was determined as 100% and the DC50 was in the range of 0.01 to 0.1 µM.

With `Cc1sc2c(c1C)C(c1ccc(Cl)cc1)=N[C@@H](CC(=O)N[C@H]1C[C@@H](Oc3ccc(OCC(=O)N[C@H](C(=O)N4C[C@H](O)C[C@H]4C(=O)N[C@@H](C)c4ccc(-c5nccn5C)cc4)C(C)(C)C)cn3)C1)c1nnc(C)n1-2` [Example 260], the Emax came out at 13% and the DC50 was greater than 1 µM.

For the origin of these results see US11554171B2, “Compounds and methods for the targeted degradation of bromodomain-containing proteins” (Arvinas Operations, Inc., priority 2015, dated 2023).
